Patent publication US20080269237A1, “CARBAMIC ACID COMPOUNDS COMPRISING A PIPERAZINE LINKAGE AS HDAC INHIBITORS” (TOPOTARGET UK LIMITED, priority 2002, published 2008)

What was measured:
[1] = tested on: K11 (HPV E7 transformed human keratinocyte line); experiment: Secondary assay: cell proliferation inhibition WST-1, K11; type: cell-based; settings: Homo sapiens, Keratinocyte, 48 h, read-out: Cell Proliferation Inhibition WST-1 (IC50 unless otherwise specified) K11
From the text: (§1) Compounds with HDAC inhibition activity, as determined using the primary assay, were subsequently evaluated using secondary cell-based assays. The following cell lines were used:
(§2) HeLa—Human cervical adenocarcinoma cell line (ATCC ref. No. CCL-2). K11—HPV E7 transformed human keratinocyte line provided by Pidder Jansen-Duerr, Institut für Biomedizinische Altemsforschung, Innsbruck, Austria. NHEK-Ad—Primary human adult keratinocyte line (Cambrex Corp., East Rutherford, N.J., USA).
(§3) Cells were plated in 96-well plates at 3-10×10^3 cells/well in 100 μL of culture medium. The following day, different concentrations of candidate compounds were added and the cells incubated at 37° C. for 48 h. Subsequently, 10 μL/well of WST-1 reagent was added and the cells reincubated for 1 hour. After the incubation time, absorbance was measured.
(§4) WST-1 is a tetrazolium salt which is cleaved to formazan dye by cellular enzymes. An expansion in the number of viable cells results in an increase in the overall activity of mitochondrial dehydrogenases in the sample. This augmentation in the enzyme activity leads to an increase in the amount of formazan dye formed, which directly correlates to the number of metabolically active cells in the culture. The formazan dye produced is quantified by a scanning multiwell spectrophotometer by measuring the absorbance of the dye solution at 450 nm wavelength (reference wavelength 690 nm).
(§5) Percent activity (% activity) in reducing the number of viable cells was calculated for each test compound as:
(§6) % activity={(S^C−B)/(S^o−B)}×100
(§7) IC50 values were calculated using the software package Prism 3.0 (GraphPad Software Inc., San Diego, Calif.), setting top value at 100 and bottom value at 0.

[2] = biological target: mouse HDAC2 (Mus musculus, UniProt P70288); experiment: biochemical
From the text: Briefly, this assay relies on the release of radioactive acetate from a radioactively labelled histone fragment by the action of HDAC enzyme. Test compounds, which inhibit HDAC, reduce the yield of radioactive acetate. Signal (e.g., scintillation counts) measured in the presence and absence of a test compound provide an indication of that compound's ability to inhibit HDAC activity. Decreased activity indicates increased inhibition by the test compound. […]
After purification of the radiolabelled histone fragment, it was incubated with a source of HDAC (e.g., an extract of HeLa cells (a rich source of HDAC), recombinantly produced HDAC1 or HDAC2) and any released acetate was extracted into an organic phase and quantitatively determined using scintillation counting. By including a test compound with the source of HDAC, that compound's ability to inhibit the HDAC was determined. […]
A source of HDAC (e.g., 2 μL of crude HeLa extract, 5 μL of HDAC1 or HDAC2; in elution buffer, as above) was incubated with 3 μL of radioactively labelled peptide along with appropriate dilutions of candidate compounds (1.5 μL) in a total volume of 150 μL of buffer (20 mM Tris pH 7.4, 10% glycerol). […] Radioactivity was measured using a Tri-Carb 2100TR Liquid Scintillation Analyzer (Packard). […]

[3] = tested on: JURKAT (human T-cell line); experiment: Secondary assay: cell proliferation inhibition WST-1, Jurkat; type: cell-based; settings: Homo sapiens, 48 h, read-out: Cell Proliferation Inhibition WST-1 (IC50 unless otherwise specified) Jurkat
[4] = tested on: NHEK-Ad (primary human adult keratinocyte line); experiment: Secondary assay: cell proliferation inhibition WST-1, NHEK-Ad; type: cell-based; settings: Homo sapiens, Keratinocyte, 48 h, read-out: Cell Proliferation Inhibition WST-1 (IC50 unless otherwise specified) NHEK-AD
From the text: as §1, §2, §3
WST-1 is a tetrazolium salt which is cleaved to formazan dye by cellular enzymes. […] The formazan dye produced is quantified by a scanning multiwell spectrophotometer by measuring the absorbance of the dye solution at 450 nm wavelength (reference wavelength 690 nm).
Percent activity (% activity) in reducing the number of viable cells was calculated for each test compound as: […]
as §7

[5] = tested on: HeLa cells; experiment: Secondary assay: cell proliferation inhibition WST-1, HeLa; type: cell-based; settings: Homo sapiens, 48 h, read-out: Cell Proliferation Inhibition WST-1 (IC50 unless otherwise specified) HeLa
From the text: as §1, §2, §3, §4, §5, §6, §7

Chain of mouse HDAC2 (P70288 whole entry, the tested form may be a part): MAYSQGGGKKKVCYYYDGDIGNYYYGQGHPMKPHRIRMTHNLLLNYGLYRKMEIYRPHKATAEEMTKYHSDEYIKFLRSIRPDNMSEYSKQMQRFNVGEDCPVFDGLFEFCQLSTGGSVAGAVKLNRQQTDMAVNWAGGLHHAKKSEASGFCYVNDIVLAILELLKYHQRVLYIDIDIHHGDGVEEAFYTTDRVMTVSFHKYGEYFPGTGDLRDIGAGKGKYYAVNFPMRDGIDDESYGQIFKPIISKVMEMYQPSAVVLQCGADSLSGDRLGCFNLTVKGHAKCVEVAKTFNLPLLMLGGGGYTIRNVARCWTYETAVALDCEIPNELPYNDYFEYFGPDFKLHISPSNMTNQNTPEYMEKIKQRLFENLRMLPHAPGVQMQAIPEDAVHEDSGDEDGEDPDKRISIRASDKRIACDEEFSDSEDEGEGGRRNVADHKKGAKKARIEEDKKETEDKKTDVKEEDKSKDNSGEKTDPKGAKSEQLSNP

`CC(/C=C/C(=O)NO)=C\[C@@H](C)C(=O)c1ccc(N(C)C)cc1` [TSA, Trichostatin A, reference compound] was tested, and the IC50 [1] was 380 nM, the IC50 [2] was 17 nM and the IC50 [3] was 42 nM. It also gave an IC50 [4] of 200 nM and an IC50 [5] of 350 nM.
